Type in all cases: cell-based
Data set [1] concerns the target T1, Voltage-gated inwardly rectifying potassium channel KCNH2 (Homo sapiens, UniProt Q12809). Kind of data set: Inhibition of wild-type human ERG channel expressed in HEK293 cells assessed as blockade of potassium tail current by whole-cell patch clamp technique.
Data set [2] has as its target T2, Voltage-gated inwardly rectifying potassium channel KCNH2 (Homo sapiens, UniProt Q12809, Y652A). Kind of data set: Inhibition of human ERG Y652A mutant channel expressed in HEK293 cells assessed as blockade of potassium tail current by whole-cell patch clamp technique. For orientation: The patch-clamp technique gives a direct electrical read-out from membranes.

Data set [3] addresses Voltage-gated inwardly rectifying potassium channel KCNH2 (Homo sapiens, UniProt Q12809, F656A). Nature of the data set: Inhibition of human ERG F656A mutant channel expressed in HEK293 cells assessed as blockade of potassium tail current by whole-cell patch clamp technique.
Data set [4] has as its target T1, Voltage-gated inwardly rectifying potassium channel KCNH2. Nature of the data set: Inhibition of wild-type human ERG channel expressed in CHO cells by whole-cell patch clamp technique.
Data set [5] concerns the target T2, Voltage-gated inwardly rectifying potassium channel KCNH2. Nature of the data set: Inhibition of human ERG Y652A mutant channel expressed in CHO cells by whole-cell patch clamp technique.
Data set [6] has as its system HEK293. Kind of data set: Ratio IC50 for human ERG F656A mutant channel expressed in HEK293 cells to IC50 for wild-type human ERG channel expressed in HEK293 cells.
The target in data set [7] is Voltage-gated inwardly rectifying potassium channel KCNH2 (Homo sapiens, UniProt Q12809, V659A). Kind of data set: Inhibition of human ERG V659A mutant channel expressed in HEK293 cells assessed decrease in blockade of potassium tail current at 1 mM by whole-cell patch clamp technique. Particulars: hek293, 1000 µM; call rule not given here.
Data set [8] relates to HEK293. Kind of data set: Ratio IC50 for human ERG Y652A mutant channel expressed in HEK293 cells to IC50 for wild-type human ERG channel expressed in HEK293 cells.

Counter-ions that a name gives are not always drawn.

Take `CCCCN1CCCC[C@@H]1C(=O)Nc1c(C)cccc1C`: the values for the IC50 in data set [1], in data set [2] and in data set [3] were 84 µM, 276 µM and 758 µM, respectively.
Regarding `CCCCN1CCCC[C@H]1C(=O)Nc1c(C)cccc1C` [LEVOBUPIVACAINE HYDROCHLORIDE], the IC50 (commonly the concentration at which inhibition is half-maximal) in data set [1] was found to be 13 µM; in data set [2], 278 µM; in data set [3], 1010 µM; in data set [4], 13 µM; in data set [5] it was 83 µM.
Consider `CCCCN1CCCCC1C(=O)Nc1c(C)cccc1C.Cl` (racemic) [BUPIVACAINE HYDROCHLORIDE], for which the IC50 in data set [1] came out at 32 µM; in data set [2], 265 µM; in data set [3] it was 866 µM; in data set [4], 22 µM; in data set [5] it was 95 µM. In addition, the values for the Ratio IC50 in data set [6] and in data set [8] were 30 and 10, respectively. Also, the “inhibition (INH)” value in data set [7] is “Active”.

(Values after ChEMBL document CHEMBL1817657, “Block of the hERG channel by bupivacaine: Electrophysiological and modeling insights towards stereochemical optimization” (Eur J Med Chem, 2011).)
